# According to patent US20250290928A1, “METHOD, KIT AND DEVICE FOR DETECTING EXTRACELLULAR VESICLES” (priority 2022, published 2025):
# No end group written: not given here. *: point of attachment. 5FAM = O=C1OC2(c3ccc(O)cc3Oc3cc(O)ccc32)c2ccc(C(=O)*)cc21; TQ2 = quencher; TQ3 = quencher
# Legend:
# [1] = system: MMP in the MDA-MB-231-derived extracellular vesicles; experiment: Evaluation of MMP activity of MDA-MB-231-derived extracellular vesicles with 96-well plate (SensoLyte 520 MMP Substrate Sampler Kit); assay type: biochemical, Human; conditions: MP, EV 3.3 μg/mL
# Method: 50 μL of the MMP detection solution was added to 50 μL of each of the samples, a reaction was performed at 30° C., and MMP activity was evaluated.
# 50 μL of each of the MMP detection solutions was added to 50 μL of each of the samples, a reaction was performed at 30° C., and MMP activity was evaluated.
# [2] = system: MMP14 in the HT1080 culture supernatants and the culture medium samples; experiment: Evaluation of MMP14 activity of HT1080 culture supernatants, culture media and recovered liquids (exoEasy, qEV) with 96-well plate; assay type: biochemical, Human; conditions: for Fluorescence change: after 2 hours; for change in fluorescence intensity after 2 hours: reporter 2.5 μM, 30° C.
# Method: The MMP14 activity was evaluated with a 96-well plate (manufactured by Thermo Fisher Scientific Inc., model number: 137101). […] For measurement wavelengths, an excitation wavelength of 485±20 nm and a fluorescence wavelength of 528±20 nm were used.
# Human fibrosarcoma HT1080 cells (KAC Co., Ltd.) were cultured in three kinds of cell culture media described later. In addition, 100 mm cell culture Dish (Nunclon Delta Surface) (manufactured by Thermo Fisher Scientific Inc.) was used as a cell culture container.
# Each of the culture supernatants was recovered from each of the dishes in a centrifuge tube, and centrifuged at 2,000×g for 10 minutes at 4° C. Each of the supernatants after the centrifugation was recovered in a fresh container with a small amount of the culture medium remaining so as not to incorporate the precipitated cells. Each of the culture supernatants was filtered through a syringe with a 0.22 μm filter (manufactured by Merck KGaA) so that contaminants such as cell fragments were removed. After that, the filtrate was recovered in a fresh container, and stored at 4° C.
# From each of the HT1080 culture supernatants described in the section “(Recovery of Culture Supernatant)”, 100 μL of each of the supernatants after centrifugation and 100 μL of each of the supernatants after filtration through a 0.22 μm filter were each aliquoted, and the buffer (4) was added to the aliquots to provide 1 mL of solutions. The concentration of each of the solutions is 1/10 of the concentration of each of the HT1080 culture supernatants.
# In addition, for detection of MMP14 activity, 1 mM Custom #1 was diluted with the buffer (4) to prepare a 5 μM MMP14 detection solution.
# 50 μL of the MMP14 detection solution was added to 50 μL of each of the samples, a reaction was performed at 30° C., and MMP14 activity was evaluated.
# Extracellular vesicles were recovered from 3 mL of each of the recovered culture supernatants with exoEasy Maxi Kit. In this case, the recovery was performed according to the protocol included in the kit. From 3 mL of each of the culture supernatants, 450 μL of each of recovered liquids was obtained. Each of the recovered liquids has a concentration 6.67 times the original concentration of each of the culture supernatants. Each of the recovered liquids was diluted 66.7-fold to prepare 100 μL of a sample at 1/10 of the original concentration of each of the culture supernatants.
# Extracellular vesicles were recovered from 3 mL of each of the recovered culture supernatants with qEV. In this case, the recovery was performed according to the protocol included in the kit. From 3 mL of each of the culture supernatants, 700 μL of each of fraction recovered liquids in series was obtained. Each of the recovered liquids was used as a sample as it was.
substance,measurement,setting,value
TAMRA-GGPLGLAGGK(TQ3) ({TAMRA}-GGPLGLAGGK(TQ3)) [Custom #2T],Fluorescence change after 2 hours of reaction at 30° C.,[1]; 1.25 μM Custom #2T with 1.25 μM SB2,"1,319 ΔRFU"
same,Fluorescence change after 2 hours of reaction at 30° C.,[1]; 1.25 μM Custom #2T with 1.25 μM SB6,"1,527 ΔRFU"
same,Fluorescence change after 2 hours of reaction at 30° C.,[1]; 1.25 μM Custom #2T with 1.25 μM SB7,626 ΔRFU
same,Fluorescence change after 2 hours of reaction at 30° C.,[1]; 1.25 μM Custom #2T with 1.25 μM SB9,469 ΔRFU
same,Fluorescence change after 2 hours of reaction at 30° C.,[1]; 1.25 μM Custom #2T with 1.25 μM SB10,"1,030 ΔRFU"
same,Fluorescence change after 2 hours of reaction at 30° C.,[1]; 5 μM Custom #2T with 5 μM SB2,710 ΔRFU
same,Fluorescence change after 2 hours of reaction at 30° C.,[1]; 5 μM Custom #2T with 5 μM SB6,"1,161 ΔRFU"
same,Fluorescence change after 2 hours of reaction at 30° C.,[1]; 5 μM Custom #2T with 5 μM SB7,288 ΔRFU
same,Fluorescence change after 2 hours of reaction at 30° C.,[1]; 5 μM Custom #2T with 5 μM SB9,153 ΔRFU
same,Fluorescence change after 2 hours of reaction at 30° C.,[1]; 5 μM Custom #2T with 5 μM SB10,592 ΔRFU
[5-FAM]GRIGFLRTAK(TQ2)[OH] (5FAM-GRIGFLRTAK(TQ2)-OH) [Custom #1],Fluorescence change,"[2]; Culture medium Exo-FBS, HT1080 culture Absent, None (VI)","50,117 ΔRFU"
same,Fluorescence change,"[2]; Culture medium Exo-FBS, HT1080 culture Present, Centrifugation + filtration (V)","45,429 ΔRFU"
same,Fluorescence change,"[2]; Culture medium Exo-FBS, HT1080 culture Present, Only centrifugation (IV)","46,172 ΔRFU"
same,Fluorescence change,"[2]; Culture medium FBS, HT1080 culture Absent, None (III)","66,945 ΔRFU"
same,Fluorescence change,"[2]; Culture medium FBS, HT1080 culture Present, Centrifugation + filtration (II)","65,200 ΔRFU"
same,Fluorescence change,"[2]; Culture medium FBS, HT1080 culture Present, Only centrifugation (I)","64,773 ΔRFU"
same,Fluorescence change,"[2]; Culture medium MEM (×10, supernatant without dilution), HT1080 culture Present, Centrifugation + filtration","1,515 ΔRFU"
same,Fluorescence change,"[2]; Culture medium MEM (×10, supernatant without dilution), HT1080 culture Present, Only centrifugation","2,494 ΔRFU"
same,Fluorescence change,"[2]; Culture medium MEM, HT1080 culture Absent, None (IX)",−311 ΔRFU
same,Fluorescence change,"[2]; Culture medium MEM, HT1080 culture Present, Centrifugation + filtration (VIII)",186 ΔRFU
same,Fluorescence change,"[2]; Culture medium MEM, HT1080 culture Present, Only centrifugation (VII)",−240 ΔRFU
same,change in fluorescence intensity after 2 hours,"[2]; Example 56, exoEasy recovered liquid from the Exo-FBS",the fluorescence intensity was changed
same,change in fluorescence intensity after 2 hours,"[2]; Example 56, exoEasy recovered liquid from the MEM",no change in fluorescence intensity was recognized
same,Fluorescence change,"[2]; exoEasy recovered liquid, Culture medium Exo-FBS, HT1080 culture Present","6,663 ΔRFU"
same,Fluorescence change,"[2]; exoEasy recovered liquid, Culture medium MEM, HT1080 culture Present",−313 ΔRFU
same,Fluorescence change,"[2]; qEV recovered liquid, Exo-FBS, HT1080 culture Present, Fraction # 1",336 ΔRFU
same,Fluorescence change,"[2]; qEV recovered liquid, Exo-FBS, HT1080 culture Present, Fraction # 2",318 ΔRFU
same,Fluorescence change,"[2]; qEV recovered liquid, Exo-FBS, HT1080 culture Present, Fraction # 3",271 ΔRFU
same,Fluorescence change,"[2]; qEV recovered liquid, Exo-FBS, HT1080 culture Present, Fraction # 4",285 ΔRFU
same,Fluorescence change,"[2]; qEV recovered liquid, Exo-FBS, HT1080 culture Present, Fraction # 5",302 ΔRFU
same,Fluorescence change,"[2]; qEV recovered liquid, Exo-FBS, HT1080 culture Present, Fraction # 6",325 ΔRFU
same,Fluorescence change,"[2]; qEV recovered liquid, Exo-FBS, HT1080 culture Present, Fraction # 7","1,869 ΔRFU"
same,Fluorescence change,"[2]; qEV recovered liquid, Exo-FBS, HT1080 culture Present, Fraction # 8","7,249 ΔRFU"
same,Fluorescence change,"[2]; qEV recovered liquid, Exo-FBS, HT1080 culture Present, Fraction # 9","9,417 ΔRFU"
same,Fluorescence change,"[2]; qEV recovered liquid, Exo-FBS, HT1080 culture Present, Fraction # 10","17,731 ΔRFU"
same,Fluorescence change,"[2]; qEV recovered liquid, Exo-FBS, HT1080 culture Present, Fraction # 11","30,226 ΔRFU"
same,Fluorescence change,"[2]; qEV recovered liquid, Exo-FBS, HT1080 culture Present, Fraction # 12","44,826 ΔRFU"
same,Fluorescence change,"[2]; qEV recovered liquid, Exo-FBS, HT1080 culture Present, Fraction # 13","61,704 ΔRFU"
same,Fluorescence change,"[2]; qEV recovered liquid, Exo-FBS, HT1080 culture Present, Fraction # 14","76,810 ΔRFU"
same,Fluorescence change,"[2]; qEV recovered liquid, MEM, HT1080 culture Present, Fraction # 1",245 ΔRFU
same,Fluorescence change,"[2]; qEV recovered liquid, MEM, HT1080 culture Present, Fraction # 2",285 ΔRFU
same,Fluorescence change,"[2]; qEV recovered liquid, MEM, HT1080 culture Present, Fraction # 3",245 ΔRFU
same,Fluorescence change,"[2]; qEV recovered liquid, MEM, HT1080 culture Present, Fraction # 4",304 ΔRFU
same,Fluorescence change,"[2]; qEV recovered liquid, MEM, HT1080 culture Present, Fraction # 5","1,450 ΔRFU"
same,Fluorescence change,"[2]; qEV recovered liquid, MEM, HT1080 culture Present, Fraction # 6",697 ΔRFU
same,Fluorescence change,"[2]; qEV recovered liquid, MEM, HT1080 culture Present, Fraction # 7","10,198 ΔRFU"
same,Fluorescence change,"[2]; qEV recovered liquid, MEM, HT1080 culture Present, Fraction # 8","11,966 ΔRFU"
same,Fluorescence change,"[2]; qEV recovered liquid, MEM, HT1080 culture Present, Fraction # 9","1,424 ΔRFU"
same,Fluorescence change,"[2]; qEV recovered liquid, MEM, HT1080 culture Present, Fraction # 10",550 ΔRFU
same,Fluorescence change,"[2]; qEV recovered liquid, MEM, HT1080 culture Present, Fraction # 11",506 ΔRFU
same,Fluorescence change,"[2]; qEV recovered liquid, MEM, HT1080 culture Present, Fraction # 12",536 ΔRFU
same,Fluorescence change,"[2]; qEV recovered liquid, MEM, HT1080 culture Present, Fraction # 13",489 ΔRFU
same,Fluorescence change,"[2]; qEV recovered liquid, MEM, HT1080 culture Present, Fraction # 14",446 ΔRFU
